Test results as given in patent publication US20070142437A1, “CHEMICAL COMPOUNDS” (priority 2005, published 2007).
pIC50: −log10 of the molar value.

Target: T1, CDK4 (Homo sapiens, UniProt P11802)
T1 construct: made in house
Assay: CDK4 substrate phosphorylation assay (Rb protein, 33P-ATP)
Assay type: biochemical
Settings: Inhibition of CDK4
Method: The compounds of the present invention have valuable pharmacologic properties. Different compounds from this class are particularly effective at inhibiting CDK2 and/or CDK4 enzymes at concentrations, which range from 0.0001 to 1 μM and additionally show specificity relative to other kinases. Substrate phosphorylation assays were carried out as follows:
Cyclin D1 and cyclin-dependent kinase 4 were expressed utilizing a baculovirus expression system. The catalytic activity of CDK4 protein was assayed by measuring the phosphorylation of Rb protein. A truncated Rb protein (residues 773-928 of the native retinoblastoma protein, fused to glutathione S-transferase to facilitate purification) was used as the phosphoryl acceptor. The assay conditions were 100 mM HEPES (N-[2-hydroxyethyl]piperzine-N′-[2-ethanesulfonic acid]), pH 7.5, 0.5 μM GST-Rb protein, 1 μCi/mL [^33P]-ATP (1 nM-20 μM), 5-20 mM MgCl2, 2.5 mM EDTA, 1 mM dithiotheitol, 0.2 mg/mL bovine serum albumin, 2% (v/v) dimethyl sulfoxide (DMSO), CDK4 enzyme (5-50 nM) in a final volume of 50 μL. Reactions were incubated for time periods of 10-60 min at 30° C. and terminated by the addition of 50 μL quench (1 mM ATP/100 mM EDTA, pH 7.0). Detection of protein phosphorylation was accomplished by scintillation counting following collection of protein in 96 well plates coated with Glutathione or trapping of protein onto phosphocellulose filters. Counts detected by these methodologies minus the appropriate background were assumed to be proportional to the reaction initial rates. IC50 values were determined by measuring enzyme activity in the presence of different inhibitor concentrations (0.1 nM to 50 μM). IC50s were determined by a least squares fit to the equation CPM=Vmax*(1−([I]/(K+[I])))+nsb, or pIC50s were determined by a fit to the equation CPM=nsb+(Vmax−nsb)/(1+(x/10^x−pIC50)), where nsb are the background counts.

T1 sequence (P11802 whole entry, species assumed): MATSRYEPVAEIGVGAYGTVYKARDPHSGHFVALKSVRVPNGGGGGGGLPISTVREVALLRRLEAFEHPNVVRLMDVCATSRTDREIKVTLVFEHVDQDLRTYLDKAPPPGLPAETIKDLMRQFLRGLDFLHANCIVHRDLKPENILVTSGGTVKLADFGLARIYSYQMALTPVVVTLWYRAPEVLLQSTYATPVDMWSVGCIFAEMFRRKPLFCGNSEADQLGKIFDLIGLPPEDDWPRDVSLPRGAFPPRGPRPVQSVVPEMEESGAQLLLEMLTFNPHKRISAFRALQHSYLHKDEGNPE
T1 sequence (P24385 whole entry partner, species assumed): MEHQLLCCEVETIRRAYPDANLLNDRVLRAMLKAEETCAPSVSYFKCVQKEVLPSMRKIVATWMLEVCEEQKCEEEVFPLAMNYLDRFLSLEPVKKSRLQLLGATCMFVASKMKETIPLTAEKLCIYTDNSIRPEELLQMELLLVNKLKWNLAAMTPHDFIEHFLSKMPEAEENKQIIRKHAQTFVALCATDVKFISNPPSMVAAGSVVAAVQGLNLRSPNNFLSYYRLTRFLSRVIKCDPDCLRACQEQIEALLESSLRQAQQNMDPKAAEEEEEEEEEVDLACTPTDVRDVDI

With COc1cccc(-c2cnc(Nc3ccc(-n4ccnc4)nc3)o2)c1 [Example 32, 6-(1H-imidazol-1-yl)-N-[5-(3-methoxyphenyl)-1,3-oxazol-2-yl]pyridin-3-amine] as the compound, how does the pIC50 read?
The pIC50 was > 5.00.

COc1cccc(-c2cnc(Nc3ccc(N4CCCCC4)nc3)o2)c1 [Example 33, N-[5-(3-methoxyphenyl)-1,3-oxazol-2-yl]-6-piperdin-1-ylpyridin-3-amine] was tested. Which pIC50 did it give?
The pIC50 was > 5.00.

CCCN1CCC(c2csc(Nc3ncc(-c4cccc(OC)c4)o3)n2)CC1 [Example 49, 5-(3-methoxyphenyl)-N-[4-(1-propylpiperidin-4-yl)-1,3-thiazol-2-yl]-1,3-oxazol-2-amine] was tested. Which pIC50 did it give?
Its pIC50 is > 6.00.

Tested on: HUVEC cells
Assay: Human Umbilical Vein Endothelial Cell (HUVEC) proliferation assay (BrdU incorporation)
Assay type: cell-based
Settings: growth stimulated with VEGF, 72 hrs, read-out: Inhibition of HUVEC proliferation IC50
Method: Human Umbilical Vein Endothelial Cell (HUVEC) Proliferation Assay (BrdU Incorporation) Materials
HUVEC cells and EGM-MV (Endothelial cell growth medium—microvascular) were purchased from Clonetics (San Diego, Calif.). VEGF and bFGF were purchased from R&D Systems (Minneapolis, Minn.). Anti-BrdU antibody was obtained from Chemicon International (Temecula, Calif.).
HUVECs were routinely maintained in EGM-MV medium and were used within passage 7. HUVECs were plated at a density of 2500 cells/well in M199 medium containing 5% FBS (Hyclone) in type I collagen coated plate (Becton Dickinson). The plate was incubated at 37° C. overnight. The medium was removed by aspiration, and test compounds were added to each well in a volume of 0.1 ml/well in serum-free M199 medium. Compound concentrations ranged from 1.5 nM to 30 micromolar. The plate was incubated for 30 min at 37° C. Another 0.1 ml of serum-free M199 medium containing BSA and VEGF (or bFGF) was added to give a final concentration of 0.1% BSA and 10 ng/ml VEGF (0.3 ng/ml bFGF). The plate was incubated at 37° C. for 72 hrs. BrdU was added to each well after the first 48 hrs to give a concentration of 10 micromolar. The colorimetric ELISA assay was performed according to manufacturer's (Roche Molecular Sciences) instructions, with detection by absorbance reading at 450 nm. Results were plotted as concentration of test compound vs. absorbance to give an IC50 value for inhibition of BrdU incorporation.

CCS(=O)(=O)c1ccc(OC)c(Nc2ncc(-c3cccc(-c4ccccc4)c3)o2)c1 [Example 180, 5-(1,1′-biphenyl-3-yl)-N-[5-(ethylsulfonyl)-2-methoxyphenyl]-1,3-oxazol-2-amine] was tested. Which pIC50 did it give?
Its pIC50 is > 6.30.

CCS(=O)(=O)c1ccc(OC)c(Nc2ncc(-c3cccc(-c4ccco4)c3)o2)c1 [Example 181, N-[5-(ethylsulfonyl)-2-methoxyphenyl]-5-[3-(2-furyl)phenyl]-1,3-oxazol-2-amine] was tested. Which pIC50 did it give?
Its pIC50 is > 6.30.

CCS(=O)(=O)c1ccc(OC)c(Nc2ncc(-c3cccc(-c4ccc(F)cc4)c3)o2)c1 [Example 183, N-[5-(ethylsulfonyl)-2-methoxyphenyl]-5-(4′-fluoro-1,1′-biphenyl-3-yl)-1,3-oxazol-2-amine] was tested. Which pIC50 did it give?
Its pIC50 is > 6.30.

CCS(=O)(=O)c1ccc(OC)c(Nc2ncc(-c3cccc(-c4ccc5c(c4)CCO5)c3)o2)c1 [Example 184, 5-[3-(2,3-dihydro-1-benzofuran-5-yl)phenyl]-N-[5-(ethylsulfonyl)-2-methoxyphenyl]-1,3-oxazol-2-amine] was tested. Which pIC50 did it give?
The pIC50 was > 6.30.

COc1ccc(S(N)(=O)=O)cc1Nc1ncc(-c2cccc(-c3ccccc3)c2)o1 [Example 187, 3-{[5-(1,1′-biphenyl-3-yl)-1,3-oxazol-2-yl]amino}-4-methoxybenzenesulfonamide] was tested. Which pIC50 did it give?
Its pIC50 is > 6.30.

CNS(=O)(=O)c1ccc(OC)c(Nc2ncc(-c3cccc(-c4ccc(F)cc4)c3)o2)c1 [Example 189, 3-{[5-(4′-fluoro-1,1′-biphenyl-3-yl)-1,3-oxazol-2-yl]amino}-4-methoxy-N-methylbenzenesulfonamide] was tested. Which pIC50 did it give?
The pIC50 was > 6.30.

How did the pIC50 turn out when CCC(CC)S(=O)(=O)c1ccc(OC)c(Nc2ncc(-c3cccc(-c4ccccn4)c3)o2)c1 [Example 192, N-{5-[(1-ethylpropyl)sulfonyl]-2-methoxyphenyl}-5-(3-pyridin-2-ylphenyl)-1,3-oxazol-2-amine] was run?
The pIC50 was > 6.00.

With COc1ccc(S(=O)(=O)C(C)C)cc1Nc1ncc(-c2cccc(-c3ccccn3)c2)o1 [Example 193, N-[5-(isopropylsulfonyl)-2-methoxyphenyl]-5-(3-pyridin-2-ylphenyl)-1,3-oxazol-2-amine] as the compound, how does the pIC50 read?
The pIC50 was > 6.00.

COc1ccc(S(=O)(=O)C(C)c2ccncc2)cc1Nc1ncc(-c2cccc(-c3ccccc3)c2)o1 (centres unmarked) [Example 196, 5-(1,1′-biphenyl-3-yl)-N-{2-methoxy-5-[(1-pyridin-4-ylethyl)sulfonyl]phenyl}-1,3-oxazol-2-amine] was tested. Which pIC50 did it give?
Its pIC50 is > 6.30.

COc1cc(Nc2ncc(-c3cccc(-c4ccccc4)c3)o2)cc(OC)c1OC [Example 199, 5-(1,1′-biphenyl-3-yl)-N-(3,4,5-trimethoxyphenyl)-1,3-oxazol-2-amine] was tested. Which pIC50 did it give?
The pIC50 was > 6.30.

With CCS(=O)(=O)c1ccc(OC)c(Nc2ncc(-c3cccc(-c4cccc(F)c4)c3)o2)c1 [Example 207, N-[5-(ethylsulfonyl)-2-methoxyphenyl]-5-(3′-fluoro-1,1′-biphenyl-3-yl)-1,3-oxazol-2-amine] as the compound, how does the pIC50 read?
Its pIC50 is > 6.30.

COc1ccc(S(N)(=O)=O)cc1Nc1ncc(-c2cccc(-c3cccc(F)c3)c2)o1 [Example 214, 3-{[5-(3′-fluoro-1,1′-biphenyl-3-yl)-1,3-oxazol-2-yl]amino}-4-methoxybenzenesulfonamide] was tested. Which pIC50 did it give?
The pIC50 was > 6.00.

How did the pIC50 turn out when CCS(=O)(=O)c1ccc(OC)c(Nc2ncc(-c3cccc(-c4ccccc4F)c3)o2)c1 [Example 215, N-[5-(ethylsulfonyl)-2-methoxyphenyl]-5-(2′-fluoro-1,1′-biphenyl-3-yl)-1,3-oxazol-2-amine] was run?
Its pIC50 is > 6.30.

CCS(=O)(=O)c1ccc(OC)c(Nc2ncc(-c3cccc(-c4ccccc4Cl)c3)o2)c1 [Example 216, 5-(2′-chloro-1,1′-biphenyl-3-yl)-N-[5-(ethylsulfonyl)-2-methoxyphenyl]-1,3-oxazol-2-amine] was tested. Which pIC50 did it give?
The pIC50 was > 6.30.

With CCNS(=O)(=O)c1ccc(OC)c(Nc2ncc(-c3cccc(-c4ccccn4)c3)o2)c1 [Example 218, N-ethyl-4-methoxy-3-{[5-(3-pyridin-2-ylphenyl)-1,3-oxazol-2-yl]amino}benzenesulfonamide] as the compound, how does the pIC50 read?
The pIC50 was > 6.30.

How did the pIC50 turn out when COc1ccc(S(=O)(=O)NCC2CC2)cc1Nc1ncc(-c2cccc(-c3ccccn3)c2)o1 [Example 221, N-(cyclopropylmethyl)-4-methoxy-3-{[5-(3-pyridin-2-ylphenyl)-1,3-oxazol-2-yl]amino}benzenesulfonamide] was run?
Its pIC50 is > 6.00.

With COc1ccc(S(=O)(=O)NC(C)C)cc1Nc1ncc(-c2cccc(-c3cccnc3)c2)o1 [Example 223, N-isopropyl-4-methoxy-3-{[5-(3-pyridin-3-ylphenyl)-1,3-oxazol-2-yl]amino}benzenesulfonamide] as the compound, how does the pIC50 read?
The pIC50 was > 6.30.

COc1ccc(S(=O)(=O)NC(C)C)cc1Nc1ncc(-c2cccc(-c3ccccc3)c2)o1 [Example 224, 3-{[5-(1,1′-biphenyl-3-yl)-1,3-oxazoI-2-yl]amino}-N-isopropyl-4-methoxybenzenesulfonamide] was tested. Which pIC50 did it give?
The pIC50 was > 6.30.

With COc1ccc(S(=O)(=O)N(C)C)cc1Nc1ncc(-c2cccc(-c3ccccc3)c2)o1 [Example 225, 3-{[5-(1,1′-biphenyl-3-yl)-1,3-oxazol-2-yl]amino}-4-methoxy-N,N-dimethylbenzenesulfonamide] as the compound, how does the pIC50 read?
Its pIC50 is > 6.30.

COc1ccc(S(=O)(=O)NC2CC2)cc1Nc1ncc(-c2cccc(-c3ccccc3)c2)o1 [Example 226, 3-{[5-(1,1′-biphenyl-3-yl)-1,3-oxazol-2-yl]amino}-N-cyclopropyl-4-methoxybenzenesulfonamide] was tested. Which pIC50 did it give?
Its pIC50 is > 6.30.

With CCCCNS(=O)(=O)c1ccc(OC)c(Nc2ncc(-c3cccc(-c4ccccc4)c3)o2)c1 [Example 227, 3-{[5-(1,1′-biphenyl-3-yl)-1,3-oxazol-2-yl]amino}-N-butyl-4-methoxybenzenesulfonamide] as the compound, how does the pIC50 read?
Its pIC50 is > 6.00.

How did the pIC50 turn out when CCN(CC)S(=O)(=O)c1ccc(OC)c(Nc2ncc(-c3cccc(-c4ccccc4)c3)o2)c1 [Example 228, 3-{[5-(1,1′-biphenyl-3-yl)-1,3-oxazol-2-yl]amino}-N,N-diethyl-4-methoxybenzenesulfonamide] was run?
The pIC50 was > 6.30.

COc1ccc(S(=O)(=O)NCC2CCCO2)cc1Nc1ncc(-c2cccc(-c3ccccc3)c2)o1 (centres unmarked) [Example 229, 3-{[5-(1,1′-biphenyl-3-yl)-1,3-oxazol-2-yl]amino}-4-methoxy-N-(tetrahydrofuran-2-ylmethyl)benzenesulfonamide] was tested. Which pIC50 did it give?
The pIC50 was > 6.00.
